Reference: patent US20220315554A1, “COMPOUNDS COMPRISING A […] LIGAND AND USE THEREOF” (priority 2019, published 2022)
Numbered stars: 1 amine (or outer) side, 2 acyl side, 3 side chain; on linkers, the order of the positions; unused ones are H or OH. Bridge positions count the residues as written; N and C are the ends. Square brackets hold non-standard residues; d marks the D form. Peptide text beside a SMILES is read from it. * marks the point of attachment. X2 = O=C(O)CN1CCN(CC(=O)O)CCN(CC(=O)NCCCOCCOCCOCCCN*)CCN(CC(=O)O)CC1; mXylylene = c1cc(C[*:1])cc(C[*:2])c1; Suc = O=C(CCC(=O)[*:2])[*:1]; Nle = CCCC[C@H](N)C(=O)O

Columns and labels:
[1] = Plasma stability assay, human plasma; assay type: in vitro ADME; details: 24 h incubation, 37° C., read-out: % intact compound remaining after incubation, Human plasma
[2] = target: T1, Human recombinant FAP (Homo sapiens, UniProt Q12884); test: Surface plasmon resonance (Biacore) assay; assay type: binding
T1 sequence (Q12884 1-760): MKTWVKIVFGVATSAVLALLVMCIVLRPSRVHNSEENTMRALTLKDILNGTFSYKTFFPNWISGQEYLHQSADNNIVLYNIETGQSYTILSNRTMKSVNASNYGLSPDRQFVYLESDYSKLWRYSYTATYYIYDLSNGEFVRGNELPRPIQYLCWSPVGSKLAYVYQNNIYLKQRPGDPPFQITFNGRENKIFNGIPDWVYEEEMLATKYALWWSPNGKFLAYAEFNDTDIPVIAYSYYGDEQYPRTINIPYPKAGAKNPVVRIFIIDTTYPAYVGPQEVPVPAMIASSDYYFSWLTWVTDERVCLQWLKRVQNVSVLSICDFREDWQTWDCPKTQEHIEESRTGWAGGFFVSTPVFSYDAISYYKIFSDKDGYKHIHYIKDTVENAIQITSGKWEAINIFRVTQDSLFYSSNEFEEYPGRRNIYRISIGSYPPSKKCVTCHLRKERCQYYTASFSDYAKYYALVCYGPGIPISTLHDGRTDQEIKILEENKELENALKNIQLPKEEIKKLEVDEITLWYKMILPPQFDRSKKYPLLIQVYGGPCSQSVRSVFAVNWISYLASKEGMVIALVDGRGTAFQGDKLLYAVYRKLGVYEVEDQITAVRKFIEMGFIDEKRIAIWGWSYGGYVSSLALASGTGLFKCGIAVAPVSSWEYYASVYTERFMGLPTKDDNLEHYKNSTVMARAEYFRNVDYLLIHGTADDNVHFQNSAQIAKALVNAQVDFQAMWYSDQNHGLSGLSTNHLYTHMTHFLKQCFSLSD

[3] = in vitro; details: rat, plasma
[4] = target: T2, FAP-expressing human WI-38 fibroblasts (Homo sapiens, UniProt Q12884); test: Competitive FACS binding assay
T2 construct: FAP-expressing human WI-38 fibroblasts (ECACC) were cultured in EMEM; host or cells: WI-38 human fibroblasts
T2 sequence (Q12884 1-760): T1 sequence (Q12884 1-760)
Procedure: Cells were analyzed in an Attune NxT flow cytometer. […]

[5] = target: T1, Human recombinant FAP; test: FRET-based FAP protease activity assay; assay type: biochemical; parameters: purchased R&D systems 3715-SE
[6] = Plasma stability assay, mouse plasma; assay type: in vitro ADME; details: 37° C., read-out: % intact compound remaining after incubation, Mouse plasma; for remaining at 4 h, 9.8 µM: 4 h incubation
[7] = target: KV channel; details: read-out: Ki Ref, reference compound (positive control)
[8] = target: T3, recombinant human PREP (Homo sapiens, UniProt P48147); test: PREP protease activity assay; assay type: biochemical
T3 construct: purchased R&D systems 4308-SE
T3 sequence (P48147 1-710): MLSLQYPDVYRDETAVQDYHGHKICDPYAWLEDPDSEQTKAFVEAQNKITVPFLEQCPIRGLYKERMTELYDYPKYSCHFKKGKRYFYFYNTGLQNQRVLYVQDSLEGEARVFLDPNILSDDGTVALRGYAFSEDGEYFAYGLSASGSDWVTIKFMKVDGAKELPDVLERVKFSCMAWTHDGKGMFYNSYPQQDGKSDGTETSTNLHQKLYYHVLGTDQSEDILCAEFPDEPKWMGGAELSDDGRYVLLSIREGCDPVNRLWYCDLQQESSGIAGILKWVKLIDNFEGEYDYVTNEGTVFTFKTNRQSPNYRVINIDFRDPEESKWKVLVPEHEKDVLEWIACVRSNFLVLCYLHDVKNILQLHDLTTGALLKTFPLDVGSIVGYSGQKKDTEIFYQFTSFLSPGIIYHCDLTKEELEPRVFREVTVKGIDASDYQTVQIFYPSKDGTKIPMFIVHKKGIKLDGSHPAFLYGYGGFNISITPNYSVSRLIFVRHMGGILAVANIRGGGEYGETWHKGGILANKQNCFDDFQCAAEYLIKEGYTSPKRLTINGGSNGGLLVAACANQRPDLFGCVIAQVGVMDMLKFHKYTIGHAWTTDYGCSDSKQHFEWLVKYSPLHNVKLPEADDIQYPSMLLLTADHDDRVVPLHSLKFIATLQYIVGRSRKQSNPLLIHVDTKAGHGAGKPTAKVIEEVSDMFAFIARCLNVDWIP

[9] = target: T4, Recombinant human DPP4 (Homo sapiens, UniProt P27487); test: DPP4 protease activity assay; assay type: biochemical
T4 construct: purchased R&D systems 9168-SE
T4 sequence (P27487 whole entry): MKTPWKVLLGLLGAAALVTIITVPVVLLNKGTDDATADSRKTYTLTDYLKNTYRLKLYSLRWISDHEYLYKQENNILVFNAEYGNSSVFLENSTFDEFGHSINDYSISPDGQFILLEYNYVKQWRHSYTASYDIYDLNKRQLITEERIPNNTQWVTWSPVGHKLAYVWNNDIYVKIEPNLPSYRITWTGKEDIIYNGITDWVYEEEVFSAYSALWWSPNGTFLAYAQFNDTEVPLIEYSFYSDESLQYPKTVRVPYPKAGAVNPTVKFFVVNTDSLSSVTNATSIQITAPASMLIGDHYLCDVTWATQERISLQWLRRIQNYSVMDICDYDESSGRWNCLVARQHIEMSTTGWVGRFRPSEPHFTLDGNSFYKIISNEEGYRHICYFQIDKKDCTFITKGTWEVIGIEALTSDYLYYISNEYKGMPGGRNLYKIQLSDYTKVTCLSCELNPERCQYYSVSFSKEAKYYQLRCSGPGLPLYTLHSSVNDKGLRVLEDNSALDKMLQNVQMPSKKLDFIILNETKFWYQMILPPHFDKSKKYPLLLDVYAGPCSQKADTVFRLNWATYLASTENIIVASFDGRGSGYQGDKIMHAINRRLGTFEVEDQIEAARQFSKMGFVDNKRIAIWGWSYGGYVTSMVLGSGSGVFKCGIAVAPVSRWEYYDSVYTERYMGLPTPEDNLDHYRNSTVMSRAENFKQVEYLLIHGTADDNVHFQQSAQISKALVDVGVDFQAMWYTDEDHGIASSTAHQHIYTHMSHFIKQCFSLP

[10] = pIC50 Category (FACS), competition with 3 nM Cy5-labeled compound, WI-38 fibroblasts, 4° C., 1 hour
[11] = pIC50 Category (Activity), recombinant human FAP, FRET substrate, 37° C.

Compound	remaining at 24 h, 9.8 µM [1]	Kd [2]	remaining at 24 h, 9.8 µM [3]	IC50 [4, 10]	IC50 [5, 11]	remaining at 24 h, 9.8 µM ([6]; 24 h incubation)	Ki [7]	IC50 [8]	IC50 [9]	IC50 ([4]; pIC50 (highest activity category), FACS binding)	IC50 ([5]; pIC50 (highest activity category), FAP activity assay)	remaining at 4 h, 9.8 µM [6]
CCCCCC(=O)N[C@H]1CSCc2cc(CSCCNC(=O)CN3CCN4CCN5CCN(CC3)CC(=O)[O][Lu]([O]C(=O)C4)[O]C(=O)C5)cc(c2)CSC[C@@H](C(=O)O)NC(=O)[C@H](Cc2ccccc2)NC(=O)[C@H](CCC(N)=O)NC(=O)[C@H]([C@@H](C)O)NC(=O)[C@@H]2CCCN2C(=O)[C@@H]2CCCN2C1 [3BP-3624, Lutetium-Complex of Hex-[Cys(tMeBn(DOTA-AET))-Pro-Pro-Thr-Gln-Phe-Cys]-OH]	100%	< 10 nM	100%	< 10 nM	< 10 nM	100%	–	–	–	–	–	–
alpha-dendrotoxin	–	–	–	–	–	–	0.097 nM	–	–	–	–	–
CSCC[C@H](NC(=O)CCC(=O)NCCCOCCOCCOCCOCCCNC(=O)CN1CCN(CC(=O)O)CCN(CC(=O)O)CCN(CC(=O)O)CC1)C(=O)N[C@H]1CSCc2cccc(c2)CSC[C@@H](C(=O)N[C@@H](CC(=O)O)C(=O)N[C@@H](Cc2c[nH]cn2)C(=O)N[C@@H](Cc2ccccc2)C(=O)N[C@@H](CCCNC(=N)N)C(=O)N[C@@H](CC(=O)O)C(N)=O)NC(=O)[C@H](Cc2ccccc2)NC(=O)[C@H](CCC(=O)O)NC(=O)[C@H]2NC(=O)[C@@H]3C(CCN3C(=O)[C@@H]3CCCN3C1=O)[C@H]2O [3BP-3168, DOTA-Ttds-Nle-[Cys(3MeBn)-Pro-Pro-Thr-Glu-Phe-Cys]-Asp-His-Phe-Arg-Asp-NH2]	–	< 10 nM	–	< 10 nM	< 10 nM	–	–	> 1000 nM	> 1000 nM	< 10 nM	< 10 nM	100%
CCCC[C@H](NC(=O)CCC(=O)NCCCOCCOCCOCCCNC(=O)CN1CCN(CC(=O)O)CCN(CC(=O)O)CCN(CC(=O)O)CC1)C(=O)N[C@H]1CSCc2cccc(c2)CSC[C@@H](C(N)=O)NC(=O)[C@H](Cc2ccccc2)NC(=O)[C@H](CCC(=O)O)NC(=O)[C@H]([C@@H](C)O)NC(=O)[C@@H]2CCCN2C(=O)[C@@H]2CCCN2C1=O [3BP-3319, DOTA-Ttds-Nle-[Cys(3MeBn)-Pro-Pro-Thr-Glu-Phe-Cys]-NH2] ({X2-Suc}-[Nle]CPPTEFC-NH2; linker 2-8 via mXylylene)	–	10 to 79.4 nM	–	10 to 79.4 nM	10 to 79.4 nM	–	–	631 nM	> 1000 nM	–	–	100%
